According to PMC6812009, “Covalent Aurora A regulation by the metabolic integrator coenzyme A” (Redox Biology, 2019):

Experiments:
Experiment in all cases: Kinase profiling screen (radioactive filter-binding assay)
Type in all cases: biochemical
MSPK1 = MSPK1 (Homo sapiens, UniProt O75716); conditions: 100 μM compound, 50 μM ATP; read-out: Kinase activity, % of activity in the absence of inhibitor
Outline: (§1)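 Across 117 protein kinases, duplicate in vitro measurements were made with CoA, dpCoA and ADP present at 100 μM final. Each reaction used recombinant kinase, a model substrate and an optimal concentration of ATP.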

EPH-B4 = target: T1, EPH-B4 (Homo sapiens, UniProt P54760); conditions: 100 μM compound, 50 μM ATP; read-out: Kinase activity, % of activity in the absence of inhibitor
T1 sequence (P54760 16-987): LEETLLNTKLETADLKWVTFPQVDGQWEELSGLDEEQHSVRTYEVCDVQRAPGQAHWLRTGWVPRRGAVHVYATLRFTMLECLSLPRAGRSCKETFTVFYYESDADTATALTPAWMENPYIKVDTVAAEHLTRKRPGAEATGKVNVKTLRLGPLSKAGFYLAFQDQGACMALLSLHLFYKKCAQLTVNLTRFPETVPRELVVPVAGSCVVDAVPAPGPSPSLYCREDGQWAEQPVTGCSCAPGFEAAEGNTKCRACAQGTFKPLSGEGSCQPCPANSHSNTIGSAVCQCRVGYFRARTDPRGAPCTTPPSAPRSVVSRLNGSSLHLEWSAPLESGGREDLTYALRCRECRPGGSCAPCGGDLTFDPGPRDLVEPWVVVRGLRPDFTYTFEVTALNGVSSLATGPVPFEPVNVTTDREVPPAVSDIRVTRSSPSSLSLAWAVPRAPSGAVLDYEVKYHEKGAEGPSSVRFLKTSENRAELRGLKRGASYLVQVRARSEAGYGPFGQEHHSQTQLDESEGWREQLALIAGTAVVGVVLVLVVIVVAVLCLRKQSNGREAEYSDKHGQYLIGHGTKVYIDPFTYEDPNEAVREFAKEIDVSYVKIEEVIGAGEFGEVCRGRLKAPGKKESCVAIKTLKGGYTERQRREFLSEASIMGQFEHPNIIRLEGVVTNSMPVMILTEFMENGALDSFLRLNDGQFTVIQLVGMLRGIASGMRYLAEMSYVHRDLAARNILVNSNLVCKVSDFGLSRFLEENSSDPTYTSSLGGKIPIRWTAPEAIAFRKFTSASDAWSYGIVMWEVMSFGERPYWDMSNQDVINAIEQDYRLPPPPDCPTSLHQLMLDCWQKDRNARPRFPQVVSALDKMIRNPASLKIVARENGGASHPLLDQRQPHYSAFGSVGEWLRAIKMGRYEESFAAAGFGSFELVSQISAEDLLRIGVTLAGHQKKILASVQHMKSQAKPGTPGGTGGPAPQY
Outline: as §1

MST4 = MST4 (Homo sapiens, UniProt Q9P289); conditions: 100 μM compound, 20 μM ATP; read-out: Kinase activity, % of activity in the absence of inhibitor
Outline: as §1

DAPK1 = DAPK1 (Homo sapiens, UniProt P53355); conditions: 100 μM compound, 5 μM ATP; read-out: Kinase activity, % of activity in the absence of inhibitor
Outline: as §1

MARK4 = target: T2, MARK4 (Homo sapiens, UniProt Q96L34); conditions: 100 μM compound, 50 μM ATP; read-out: Kinase activity, % of activity in the absence of inhibitor
T2 sequence (Q96L34 1-752): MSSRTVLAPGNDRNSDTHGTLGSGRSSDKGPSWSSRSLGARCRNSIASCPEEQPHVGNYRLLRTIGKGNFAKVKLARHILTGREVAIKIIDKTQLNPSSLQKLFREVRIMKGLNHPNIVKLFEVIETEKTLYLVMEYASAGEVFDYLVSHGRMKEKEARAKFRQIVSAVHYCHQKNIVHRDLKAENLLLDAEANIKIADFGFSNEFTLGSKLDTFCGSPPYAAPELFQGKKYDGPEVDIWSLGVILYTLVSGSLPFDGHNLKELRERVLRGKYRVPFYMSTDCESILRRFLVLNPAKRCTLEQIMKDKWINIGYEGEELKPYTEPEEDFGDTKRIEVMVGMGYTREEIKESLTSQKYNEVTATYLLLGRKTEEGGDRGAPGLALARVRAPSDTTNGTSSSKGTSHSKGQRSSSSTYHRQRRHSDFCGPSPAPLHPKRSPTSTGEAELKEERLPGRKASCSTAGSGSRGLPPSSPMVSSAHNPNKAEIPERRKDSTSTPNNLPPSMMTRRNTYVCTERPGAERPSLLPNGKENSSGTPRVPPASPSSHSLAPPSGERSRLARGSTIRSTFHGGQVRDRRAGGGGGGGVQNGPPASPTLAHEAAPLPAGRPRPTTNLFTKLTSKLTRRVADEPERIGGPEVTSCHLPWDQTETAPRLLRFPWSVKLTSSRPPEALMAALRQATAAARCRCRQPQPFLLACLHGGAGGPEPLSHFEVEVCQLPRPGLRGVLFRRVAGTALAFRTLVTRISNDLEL
Outline: as §1

Chain of DAPK1 (P53355 whole entry): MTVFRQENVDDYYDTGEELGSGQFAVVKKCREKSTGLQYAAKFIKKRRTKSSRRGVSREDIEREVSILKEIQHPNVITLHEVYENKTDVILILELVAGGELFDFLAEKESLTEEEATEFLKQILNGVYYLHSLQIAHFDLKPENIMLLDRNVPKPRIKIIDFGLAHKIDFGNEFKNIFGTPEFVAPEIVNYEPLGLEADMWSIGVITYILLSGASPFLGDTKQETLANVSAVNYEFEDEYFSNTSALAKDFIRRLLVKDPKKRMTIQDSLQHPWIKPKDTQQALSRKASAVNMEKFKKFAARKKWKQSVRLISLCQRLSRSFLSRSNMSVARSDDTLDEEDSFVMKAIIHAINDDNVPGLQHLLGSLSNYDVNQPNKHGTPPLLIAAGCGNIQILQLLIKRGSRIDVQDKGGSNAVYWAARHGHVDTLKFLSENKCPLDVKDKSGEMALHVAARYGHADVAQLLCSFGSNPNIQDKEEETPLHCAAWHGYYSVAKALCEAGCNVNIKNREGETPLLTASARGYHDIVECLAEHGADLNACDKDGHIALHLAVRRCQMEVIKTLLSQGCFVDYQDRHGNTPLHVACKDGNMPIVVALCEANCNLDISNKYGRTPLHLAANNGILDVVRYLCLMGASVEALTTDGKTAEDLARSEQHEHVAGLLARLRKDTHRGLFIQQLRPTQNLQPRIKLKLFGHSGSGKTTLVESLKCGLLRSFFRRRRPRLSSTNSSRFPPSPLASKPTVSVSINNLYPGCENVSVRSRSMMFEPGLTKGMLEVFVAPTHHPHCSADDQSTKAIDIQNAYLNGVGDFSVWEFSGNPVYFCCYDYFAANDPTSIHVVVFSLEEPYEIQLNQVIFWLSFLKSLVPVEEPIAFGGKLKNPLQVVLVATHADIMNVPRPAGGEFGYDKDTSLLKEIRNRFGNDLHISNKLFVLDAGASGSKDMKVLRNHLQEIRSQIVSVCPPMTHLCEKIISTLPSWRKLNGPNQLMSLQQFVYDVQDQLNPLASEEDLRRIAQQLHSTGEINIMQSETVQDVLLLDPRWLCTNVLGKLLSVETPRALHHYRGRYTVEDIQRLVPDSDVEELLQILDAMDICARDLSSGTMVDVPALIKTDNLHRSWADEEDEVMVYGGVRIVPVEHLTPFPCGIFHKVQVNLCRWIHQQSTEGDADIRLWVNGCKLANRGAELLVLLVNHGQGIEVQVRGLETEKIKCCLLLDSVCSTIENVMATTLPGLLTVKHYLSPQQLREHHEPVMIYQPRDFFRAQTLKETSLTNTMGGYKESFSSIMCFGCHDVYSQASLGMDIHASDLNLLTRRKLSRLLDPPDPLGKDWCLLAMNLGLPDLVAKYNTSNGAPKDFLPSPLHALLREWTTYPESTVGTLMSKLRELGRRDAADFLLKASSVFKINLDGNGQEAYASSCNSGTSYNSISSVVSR
Chain of MSPK1 (O75716 whole entry): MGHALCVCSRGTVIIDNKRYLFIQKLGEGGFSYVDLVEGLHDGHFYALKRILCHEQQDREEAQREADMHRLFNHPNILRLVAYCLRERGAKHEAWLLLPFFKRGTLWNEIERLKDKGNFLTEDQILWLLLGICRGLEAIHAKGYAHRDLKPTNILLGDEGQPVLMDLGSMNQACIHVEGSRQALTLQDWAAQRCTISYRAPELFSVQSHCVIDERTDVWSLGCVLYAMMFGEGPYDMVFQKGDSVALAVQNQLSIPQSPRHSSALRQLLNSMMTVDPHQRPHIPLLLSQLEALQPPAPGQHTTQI
Chain of MST4 (Q9P289 whole entry): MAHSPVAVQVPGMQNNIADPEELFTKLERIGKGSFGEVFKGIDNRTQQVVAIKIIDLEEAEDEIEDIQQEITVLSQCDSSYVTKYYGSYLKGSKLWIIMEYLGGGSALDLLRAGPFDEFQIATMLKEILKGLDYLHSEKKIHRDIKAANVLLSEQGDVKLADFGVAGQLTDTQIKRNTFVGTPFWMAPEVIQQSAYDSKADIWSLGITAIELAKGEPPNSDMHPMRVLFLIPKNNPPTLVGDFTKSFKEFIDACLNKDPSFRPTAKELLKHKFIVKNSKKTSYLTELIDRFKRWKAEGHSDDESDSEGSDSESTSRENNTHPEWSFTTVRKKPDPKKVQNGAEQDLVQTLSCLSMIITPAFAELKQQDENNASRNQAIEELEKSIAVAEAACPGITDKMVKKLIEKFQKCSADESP

Structure (SMILES)	activity at 100 µM (MSPK1) [%]	activity at 100 µM (EPH-B4) [%]	activity at 100 µM (MST4) [%]	activity at 100 µM (DAPK1) [%]	activity at 100 µM (MARK4) [%]
CC(C)(COP(=O)(O)OP(=O)(O)OC[C@H]1O[C@@H](n2cnc3c(N)ncnc32)[C@H](O)[C@@H]1OP(=O)(O)O)[C@@H](O)C(=O)NCCC(=O)NCCS [CoA, Coenzyme A]	102	107	107	106	87.7
CC(C)(COP(=O)(O)OP(=O)(O)OCC1OC(n2cnc3c(N)ncnc32)C(O)C1O)C(O)C(=O)NCCC(=O)NCCS (stereo not drawn) [dpCoA, dephospho-CoA]	102	62.1	89.7	64.4	86.6
Nc1ncnc2c1ncn2C1OC(COP(=O)(O)OP(=O)(O)O)C(O)C1O (stereo not drawn) [ADP]	94.1	9.8	56.9	10.3	49.1
